Structures are written as SMILES.

Drawing on patent publication US9073855B2, “BCL-2 selective apoptosis-inducing agents for the treatment of cancer and immune diseases” (AbbVie Inc., priority 2008, dated 2015), this text covers Ki and EC50 for eleven compounds.

For experiment [1], the target named is GST-Bcl-2 (Homo sapiens, UniProt P10415). The experiment can be described thus: TR-FRET binding assay, GST-Bcl-2 with F-Bak peptide probe. To be noted: TR-FRET Binding Affinity, GST-Bcl-2, F-Bak peptide probe. In a few lines: (§1)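 Displacement of a fluorescein-labelled Bak peptide from the GST-tagged protein was followed by time-resolved FRET with a terbium anti-GST donor after 3 h incubation at room temperature. Inhibition constants were calculated with Wang's equation.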
GST-Bcl-2, sequence (P10415 whole entry): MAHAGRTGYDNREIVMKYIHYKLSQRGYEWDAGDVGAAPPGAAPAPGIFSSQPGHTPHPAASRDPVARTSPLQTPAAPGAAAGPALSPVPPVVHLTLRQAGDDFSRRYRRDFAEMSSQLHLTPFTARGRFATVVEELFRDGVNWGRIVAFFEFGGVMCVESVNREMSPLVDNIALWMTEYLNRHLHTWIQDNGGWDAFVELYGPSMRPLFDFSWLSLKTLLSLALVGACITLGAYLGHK

Experiment [2] has as its system Canine platelets. Nature of the experiment: Platelet cell viability assay (platelet-rich plasma, Cell Titer Glo). It counts as cell-based. Particulars: Canis lupus familiaris, 5 h, isolated canine platelets ex vivo, five hours at 37° C. In a few lines: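 Isolated canine platelets were incubated ex vivo with a range of compound concentrations. After 20 min equilibration at room temperature, viability was measured by Cell Titer Glo luminescence.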

The subject of experiment [3] is FL5.12/Bcl-2 cells. The experiment can be described thus: FL5.12/Bcl-2 cell viability assay under IL-3 withdrawal (CellTitre Glo). Particulars: Mus musculus, IL-3 withdrawn 48 hrs, then 24 hrs with compound. It counts as cell-based, murine. In a few lines: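 Cells (1×10^6/ml) are washed, resuspended in medium lacking WEHI-3B conditioned medium as IL-3 source, and held 48 hrs. Compounds are then added at a range of concentrations for 24 hrs, after which CellTitre Glo reports viability.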

The target of experiment [4] is GST-Bcl-XL (Homo sapiens, UniProt Q07817). Nature of the experiment: TR-FRET binding assay, GST-Bcl-XL with F-Bak peptide probe. To be noted: TR-FRET Binding Affinity, GST-Bcl-XL, F-Bak peptide probe. In a few lines: as §1
GST-Bcl-XL, sequence (Q07817 whole entry): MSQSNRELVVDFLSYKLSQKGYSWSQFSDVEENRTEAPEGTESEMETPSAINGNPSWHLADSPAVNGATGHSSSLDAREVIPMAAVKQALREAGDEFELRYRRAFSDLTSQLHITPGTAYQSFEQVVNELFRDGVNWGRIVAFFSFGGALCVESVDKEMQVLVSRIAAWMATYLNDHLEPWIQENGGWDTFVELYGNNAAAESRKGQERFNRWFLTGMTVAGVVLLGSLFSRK

`CN(C)CCOc1cccc(-c2ccc(Cl)cc2)c1CN1CCN(c2ccc(C(=O)NS(=O)(=O)c3ccc(NCC4CCOCC4)c([N+](=O)[O-])c3)c(Oc3cccc4[nH]ccc34)c2)CC1` [Example 128, 4-[4-({4′-chloro-3-[2-(dimethylamino)ethoxy]-1,1′-biphenyl-2-yl}methyl)piperazin-1-yl]-2-(1H-indol-4-yloxy)-N-({3-nitro-4-[(tetrahydro-2H-pyran-4-ylmethyl)amino]phenyl}sulfonyl)benzamide]: the Ki was found to be 0.051 nM in experiment [1] and 363 nM in experiment [4]. Also, the concentration giving a half-maximal response (EC50) is above 50000 nM in experiment [2] and 25 nM in experiment [3].

Regarding `O=C(NS(=O)(=O)c1ccc(NCC2CCOCC2)c([N+](=O)[O-])c1)c1ccc(N2CCN(Cc3cc(OCCN4CCOCC4)ccc3-c3ccc(Cl)cc3)CC2)cc1Oc1cccc2[nH]ccc12` [Example 130, 4-(4-{[4′-chloro-4-(2-morpholin-4-ylethoxy)-1,1′-biphenyl-2-yl]methyl}piperazin-1-yl)-2-(1H-indol-4-yloxy)-N-({3-nitro-4-[(tetrahydro-2H-pyran-4-ylmethyl)amino]phenyl}sulfonyl)benzamide], the figures for the Ki in experiment [1] and in experiment [4] were 0.14 nM and above 660 nM, respectively. For the same compound, the EC50 is above 50000 nM in experiment [2] and 197 nM in experiment [3].

Turning to `O=C(NS(=O)(=O)c1ccc(NCC2CCOCC2)c([N+](=O)[O-])c1)c1ccc(N2CCN(Cc3c(OCCN4CCOCC4)cccc3-c3ccc(Cl)cc3)CC2)cc1Oc1cccc2[nH]ccc12` [Example 131, 4-(4-{[4′-chloro-3-(2-morpholin-4-ylethoxy)-1,1′-biphenyl-2-yl]methyl}piperazin-1-yl)-2-(1H-indol-4-yloxy)-N-({3-nitro-4-[(tetrahydro-2H-pyran-4-ylmethyl)amino]phenyl}sulfonyl)benzamide], the Ki came to 0.106 nM in experiment [1] and 243 nM in experiment [4]. Moreover, the EC50 is above 50000 nM in experiment [2] and 31 nM in experiment [3].

With `O=C(NS(=O)(=O)c1ccc(NCC2CCOCC2)c([N+](=O)[O-])c1)c1ccc(N2CCN(Cc3c(OCCN4CCOCC4)cccc3-c3ccc(Cl)cc3)CC2)cc1Oc1ccc2[nH]ccc2c1` [Example 132, 4-(4-{[4′-chloro-3-(2-morpholin-4-ylethoxy)-1,1′-biphenyl-2-yl]methyl}piperazin-1-yl)-2-(1H-indol-5-yloxy)-N-({3-nitro-4-[(tetrahydro-2H-pyran-4-ylmethyl)amino]phenyl}sulfonyl)benzamide], the Ki in experiment [1] is 0.553 nM; in experiment [4] it was 315 nM. The figures for the half-maximal effective concentration (EC50) in experiment [2] and in experiment [3] were above 50000 nM and 42 nM, respectively.

As to `CN(C)CCOc1ccc(-c2ccc(Cl)cc2)c(CN2CCN(c3ccc(C(=O)NS(=O)(=O)c4ccc(NC5CCN(C)CC5)c([N+](=O)[O-])c4)c(Oc4ccccc4)c3)CC2)c1` [Example 133, 4-[4-({4′-chloro-4-[2-(dimethylamino)ethoxy]-1,1′-biphenyl-2-yl}methyl)piperazin-1-yl]-N-({4-[(1-methylpiperidin-4-yl)amino]-3-nitrophenyl}sulfonyl)-2-phenoxybenzamide], the Ki in experiment [1] amounted to 0.009 nM; in experiment [4] it was 0.281 nM. The EC50 in experiment [2] was found to be 95 nM; in experiment [3], 20 nM.

Take `CN(C)CCOc1cccc(-c2ccc(Cl)cc2)c1CN1CCN(c2ccc(C(=O)NS(=O)(=O)c3ccc(NCCCN4CCCC4)c([N+](=O)[O-])c3)c(Oc3ccc4[nH]ccc4c3)c2)CC1` [Example 134, 4-[4-({4′-chloro-3-[2-(dimethylamino)ethoxy]-1,1′-biphenyl-2-yl}methyl)piperazin-1-yl]-2-(1H-indol-5-yloxy)-N-({3-nitro-4-[(3-pyrrolidin-1-ylpropyl)amino]phenyl}sulfonyl)benzamide]: the Ki was 0.052 nM in experiment [1] and 18 nM in experiment [4]. The figures for the concentration for a half-maximal effect (EC50) in experiment [2] and in experiment [3] were 4720 nM and 48 nM, respectively.

Regarding `CN(C)CCOc1ccc(-c2ccc(Cl)cc2)c(CN2CCN(c3ccc(C(=O)NS(=O)(=O)c4ccc(NCCCN5CCCC5)c([N+](=O)[O-])c4)c(Oc4ccc5[nH]ccc5c4)c3)CC2)c1` [Example 135, 4-[4-({4′-chloro-4-[2-(dimethylamino)ethoxy]-1,1′-biphenyl-2-yl}methyl)piperazin-1-yl]-2-(1H-indol-5-yloxy)-N-({3-nitro-4-[(3-pyrrolidin-1-ylpropyl)amino]phenyl}sulfonyl)benzamide], the results for the Ki in experiment [1] and in experiment [4] were 0.008 nM and 6.24 nM, respectively. The EC50 came to 4550 nM in experiment [2] and 42 nM in experiment [3].

Take `O=C(NS(=O)(=O)c1ccc(NCCCN2CCCC2)c([N+](=O)[O-])c1)c1ccc(N2CCN(Cc3cc(OCCN4CCOCC4)ccc3-c3ccc(Cl)cc3)CC2)cc1Oc1ccc2[nH]ccc2c1` [Example 136, 4-(4-{[4′-chloro-4-(2-morpholin-4-ylethoxy)-1,1′-biphenyl-2-yl]methyl}piperazin-1-yl)-2-(1H-indol-5-yloxy)-N-({3-nitro-4-[(3-pyrrolidin-1-ylpropyl)amino]phenyl}sulfonyl)benzamide]: the values for the Ki in experiment [1] and in experiment [4] were 0.259 nM and 61.9 nM, respectively. The EC50 is above 50000 nM in experiment [2] and 190 nM in experiment [3].

In the case of `CN(C)CCOc1ccc(-c2ccc(Cl)cc2)c(CN2CCN(c3ccc(C(=O)NS(=O)(=O)c4ccc(NC5CCN(CC(F)(F)F)CC5)c([N+](=O)[O-])c4)c(Oc4ccccc4)c3)CC2)c1` [Example 137, 4-[4-({4′-chloro-4-[2-(dimethylamino)ethoxy]-1,1′-biphenyl-2-yl}methyl)piperazin-1-yl]-N-[(3-nitro-4-{[1-(2,2,2-trifluoroethyl)piperidin-4-yl]amino}phenyl)sulfonyl]-2-phenoxybenzamide], the Ki in experiment [1] turned out to be 0.305 nM; in experiment [4] it was 16 nM. For the same compound, the EC50 is above 50000 nM in experiment [2] and 281 nM in experiment [3].

With `O=C(NS(=O)(=O)c1ccc(NCC2CCOCC2)c([N+](=O)[O-])c1)c1ccc(N2CCN(Cc3cc(OCCN4CCCC4)ccc3-c3ccc(Cl)cc3)CC2)cc1Oc1ccccc1` [Example 138, 4-(4-{[4′-chloro-4-(2-pyrrolidin-1-ylethoxy)-1,1′-biphenyl-2-yl]methyl}piperazin-1-yl)-N-({3-nitro-4-[(tetrahydro-2H-pyran-4-ylmethyl)amino]phenyl}sulfonyl)-2-phenoxybenzamide], the inhibition constant (Ki) turned out to be 0.009 nM in experiment [1] and 5.17 nM in experiment [4]. Besides, the EC50 in experiment [2] amounted to 17800 nM; in experiment [3] it was 29 nM.

Take `CC(C)N(CCOc1ccc(-c2ccc(Cl)cc2)c(CN2CCN(c3ccc(C(=O)NS(=O)(=O)c4ccc(NCC5CCOCC5)c([N+](=O)[O-])c4)c(Oc4ccccc4)c3)CC2)c1)C(C)C` [Example 139, 4-[4-({4′-chloro-4-[2-(diisopropylamino)ethoxy]-1,1′-biphenyl-2-yl}methyl)piperazin-1-yl]-N-({3-nitro-4-[(tetrahydro-2H-pyran-4-ylmethyl)amino]phenyl}sulfonyl)-2-phenoxybenzamide]: the Ki in experiment [1] came out at 0.101 nM; in experiment [4], 10.4 nM. Besides, the figures for the EC50 in experiment [2] and in experiment [3] were 38500 nM and 46 nM, respectively.
